Source: PubChem BioAssay AID248 (DTP/NCI, 2004)
Where “and” joins values, the source holds several entries; their conditions need not be identical. Identical values can stand only once. Inconclusive results and toxic doses are left out. No stated cut-off is given here; in the data, active means T/C of 150% or more; inactive means T/C below 125%.

Tested on: L1210 leukemia ip in BDF1 mice, survival T/C
Assay: NCI In Vivo Anticancer Drug Screen. Data for tumor model L1210 Leukemia (intraperitoneal) in B6D2F1 (BDF1) mice
Conditions: endpoint: mean survival time, higher = longer survival
How it was run: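 Antitumor effect is assessed in tumor-bearing animals. Survival in the compound arm is compared with a vehicle-dosed control arm and expressed as their quotient.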

[1] = dose: 100.0 mg/kg/injection, schedule: Q01DX001 (ip), vehicle: saline
[2] = dose: 200.0 mg/kg/injection, schedule: Q01DX001 (ip), vehicle: saline
[3] = dose: 100.0 mg/kg/injection, schedule: Q04DX002 (ip), vehicle: Klucel (hydroxypropylcellulose) (HPC)
[4] = dose: 200.0 mg/kg/injection, schedule: Q04DX002 (ip), vehicle: Klucel (hydroxypropylcellulose) (HPC)

Measured: T/C

NC(N)=N/N=C\c1cccc(OCc2ccccc2)c1
inactive: dose: 15.0 mg/kg/injection, schedule: Q01DX Z (oral), vehicle: saline 94 % of control | dose: 30.0 mg/kg/injection, schedule: Q01DX Z (oral), vehicle: saline 89 % of control | dose: 60.0 mg/kg/injection, schedule: Q01DX Z (oral), vehicle: saline 93 % of control | dose: 120.0 mg/kg/injection, schedule: Q01DX Z (oral), vehicle: saline 94 % of control

COc1ccc(C)cc1NC(=O)Nc1ccco1
inactive: dose: 100.0 mg/kg/injection, schedule: Q01DX009 (ip), vehicle: saline with Tween-80 97 % of control | dose: 200.0 mg/kg/injection, schedule: Q01DX009 (ip), vehicle: saline with Tween-80 92 % of control | dose: 400.0 mg/kg/injection, schedule: Q01DX009 (ip), vehicle: saline with Tween-80 90 % of control

C=CCN(CC=C)c1ncnc2[nH]ncc12
inactive: dose: 7.0 mg/kg/injection, schedule: Q01DX015 (ip), vehicle: carboxymethylcellulose (CMC) 91 % of control | dose: 16.0 mg/kg/injection, schedule: Q01DX015 (ip), vehicle: carboxymethylcellulose (CMC) 97 % of control | dose: 32.0 mg/kg/injection, schedule: Q01DX015 (ip), vehicle: carboxymethylcellulose (CMC) 93 % of control | dose: 62.0 mg/kg/injection, schedule: Q01DX015 (ip), vehicle: carboxymethylcellulose (CMC) 106 % of control | [1] 109 % of control | dose: 125.0 mg/kg/injection, schedule: Q01DX015 (ip), vehicle: carboxymethylcellulose (CMC) 89 % of control | [2] 101 % of control | dose: 400.0 mg/kg/injection, schedule: Q01DX001 (ip), vehicle: saline 93 % of control

COc1ccc(OC)c(NC(=O)Oc2ccccc2C(N)=O)c1
inactive: dose: 25.0 mg/kg/injection, schedule: Q04DX003 (ip), vehicle: Klucel (hydroxypropylcellulose) (HPC) 89 % of control | dose: 50.0 mg/kg/injection, schedule: Q04DX003 (ip), vehicle: Klucel (hydroxypropylcellulose) (HPC) 95 % of control | dose: 100.0 mg/kg/injection, schedule: Q04DX003 (ip), vehicle: Klucel (hydroxypropylcellulose) (HPC) 94 % of control and 92 % of control

O=C1c2ccccc2C(=O)N1CC#CCN1C(=O)c2ccccc2C1=O
inactive: [3] 102 % of control | [4] 91 % of control | dose: 400.0 mg/kg/injection, schedule: Q04DX002 (ip), vehicle: Klucel (hydroxypropylcellulose) (HPC) 112 % of control

COc1c(O)ccc2c1-c1c3c(cc4c1C(C2)NCC4)OCO3 (stereo not drawn)
inactive: [1] 102 % of control

CC1CCCCN1C(=O)c1ccccc1C(=O)O (stereo not drawn)
inactive: [3] 104 % of control | [4] 111 % of control

CN(N=O)C(=O)Nc1ccc(C(=O)O)cc1
active: dose: 12.0 mg/kg/injection, schedule: Q01DX Z (ip), vehicle: carboxymethylcellulose (CMC) 183 % of control | dose: 17.6 mg/kg/injection, schedule: Q01DX Z (ip), vehicle: carboxymethylcellulose (CMC) 190 % of control | dose: 26.4 mg/kg/injection, schedule: Q01DX Z (ip), vehicle: carboxymethylcellulose (CMC) 209 % of control | dose: 40.0 mg/kg/injection, schedule: Q01DX Z (ip), vehicle: carboxymethylcellulose (CMC) 188 % of control and 218 % of control
inactive: dose: 60.0 mg/kg/injection, schedule: Q01DX Z (ip), vehicle: carboxymethylcellulose (CMC) 118 % of control and 87 % of control | dose: 80.0 mg/kg/injection, schedule: Q01DX Z (ip), vehicle: carboxymethylcellulose (CMC) 98 % of control

CC1(C)C2=CCCCC2CC/C1=N\O (stereo not drawn)
inactive: dose: 100.0 mg/kg/injection, schedule: Q01DX001 (ip), vehicle: Klucel (hydroxypropylcellulose) (HPC) 105 % of control | dose: 200.0 mg/kg/injection, schedule: Q01DX001 (ip), vehicle: Klucel (hydroxypropylcellulose) (HPC) 105 % of control | dose: 400.0 mg/kg/injection, schedule: Q01DX001 (ip), vehicle: Klucel (hydroxypropylcellulose) (HPC) 100 % of control

Cc1ccccc1N=Nc1c(O)n(-c2ccc(Cl)cc2)c(=S)n(-c2ccccc2)c1=O
inactive: dose: 75.0 mg/kg/injection, schedule: Q04DX003 (ip), vehicle: Klucel (hydroxypropylcellulose) (HPC) 100 % of control | dose: 150.0 mg/kg/injection, schedule: Q04DX003 (ip), vehicle: Klucel (hydroxypropylcellulose) (HPC) 96 % of control | dose: 300.0 mg/kg/injection, schedule: Q04DX003 (ip), vehicle: Klucel (hydroxypropylcellulose) (HPC) 107 % of control

O=c1[nH]c(=S)[nH]cc1CN(CCO)CCO
inactive: dose: 50.0 mg/kg/injection, schedule: Q01DX001 (ip), vehicle: saline 97 % of control | [1] 90 % of control | [2] 95 % of control

O=C1CSC(=S)N1c1ccc(N2C(=O)CSC2=S)cc1
inactive: dose: 100.0 mg/kg/injection, schedule: Q04DX002 (ip), vehicle: saline with Tween-80 90 % of control | dose: 200.0 mg/kg/injection, schedule: Q04DX002 (ip), vehicle: saline with Tween-80 96 % of control | dose: 400.0 mg/kg/injection, schedule: Q04DX002 (ip), vehicle: saline with Tween-80 100 % of control

CCCCCCCCCCCCCCCCCOc1ccc(Sc2ccc([N+](=O)[O-])cc2)cc1
inactive: dose: 200.0 mg/kg/injection, schedule: Q04DX003 (ip), vehicle: Klucel (hydroxypropylcellulose) (HPC) 92 % of control
